Patent publication US9409903B2, “Benzyl substituted triazine derivatives and their therapeutical applications” (NantBioScience, Inc., priority 2009, dated 2016)

Experiments:
Assay type in all cases: biochemical
Ret kinase = molecular target: T1, Ret kinase (Homo sapiens, UniProt P07949); test: Ret kinase inhibition assay (KinaseProfiler / Kinase Hotspot); settings: compound at 1 μM
T1 construct: purchased Millipore (KinaseProfiler service); also Reaction Biology Corp. (Kinase Hotspot)
Procedure: (§1) This example illustrated c-Src kinase, Aurora-A kinase, Flt3 kinase, Ret kinase and TrkA Kinase Assays of selected Compounds from this invention (referred to Daniele Fancelli et al, J. Med. Chem., 2006, 49 (24), pp 7247-7251). The KinaseProfiler™ Service Assay Protocols (Millipore) were used to test the kinase inhibiting activity of novel compounds from this invention. To do this, the buffer composition was as: 20 mM MOPS, 1 mM EDTA, 0.01% Brij-35, 5% Glycerol, 0.1% β-mercaptoethanol, 1 mg/mL BSA. Test compounds were initially dissolved in DMSO at the desired concentration, then serially diluted to the kinase assay buffer. In a final reaction volume of 25 μL, Aurora-A(h) (5-10 mU) is incubated with 8 mM MOPS pH 7.0, 0.2 mM EDTA, 200 μM LRRASLG (Kemptide), 10 mM MgAcetate and [γ^33P-ATP]. The reaction was initiated by the addition of the MgATP mix. After incubation for 40 minute at room temperature, the reaction was stopped by addition of 5 μL of a 3% phosphoric acid solution. 10 μL of the reaction was then spotted onto a P30 filtermat and washed three times for 5 minutes in 50 mM phosphoric acid and once in methanol prior to drying and scintillation counting. Wells containing substrate but no kinase and wells containing a phosphopeptide control were used to set 0% and 100% phosphorylation value, receptively.
(§2) Also Kinase Hotspot^SM kinase assay was used to test the compounds for IC50 or % inhibitions (Reaction Biology Corp.). Inhibitor IC50 values were determined by titration of compound at the optimal kinase concentration (Kinase EC50).

TrkA Kinase = molecular target: T2, TrkA Kinase (Homo sapiens, UniProt P04629); test: TrkA kinase inhibition assay (KinaseProfiler / Kinase Hotspot); settings: compound at 1 μM
T2 construct: purchased Millipore (KinaseProfiler service); also Reaction Biology Corp. (Kinase Hotspot)
Procedure: as §1, §2

c-Src kinase = molecular target: T3, c-Src kinase (Homo sapiens, UniProt P12931); test: c-Src kinase inhibition assay (KinaseProfiler / Kinase Hotspot); settings: compound at 1 μM; read-out: % Inhibition @1 μM cSrc
T3 construct: purchased Millipore (KinaseProfiler service); also Reaction Biology Corp. (Kinase Hotspot)
Procedure: as §1, §2

Flt3 kinase = molecular target: T4, Flt3 kinase (Homo sapiens, UniProt P36888); test: Flt3 kinase inhibition assay (KinaseProfiler / Kinase Hotspot); settings: compound at 1 μM
T4 construct: purchased Millipore (KinaseProfiler service); also Reaction Biology Corp. (Kinase Hotspot)
T4 sequence (P36888 27-993): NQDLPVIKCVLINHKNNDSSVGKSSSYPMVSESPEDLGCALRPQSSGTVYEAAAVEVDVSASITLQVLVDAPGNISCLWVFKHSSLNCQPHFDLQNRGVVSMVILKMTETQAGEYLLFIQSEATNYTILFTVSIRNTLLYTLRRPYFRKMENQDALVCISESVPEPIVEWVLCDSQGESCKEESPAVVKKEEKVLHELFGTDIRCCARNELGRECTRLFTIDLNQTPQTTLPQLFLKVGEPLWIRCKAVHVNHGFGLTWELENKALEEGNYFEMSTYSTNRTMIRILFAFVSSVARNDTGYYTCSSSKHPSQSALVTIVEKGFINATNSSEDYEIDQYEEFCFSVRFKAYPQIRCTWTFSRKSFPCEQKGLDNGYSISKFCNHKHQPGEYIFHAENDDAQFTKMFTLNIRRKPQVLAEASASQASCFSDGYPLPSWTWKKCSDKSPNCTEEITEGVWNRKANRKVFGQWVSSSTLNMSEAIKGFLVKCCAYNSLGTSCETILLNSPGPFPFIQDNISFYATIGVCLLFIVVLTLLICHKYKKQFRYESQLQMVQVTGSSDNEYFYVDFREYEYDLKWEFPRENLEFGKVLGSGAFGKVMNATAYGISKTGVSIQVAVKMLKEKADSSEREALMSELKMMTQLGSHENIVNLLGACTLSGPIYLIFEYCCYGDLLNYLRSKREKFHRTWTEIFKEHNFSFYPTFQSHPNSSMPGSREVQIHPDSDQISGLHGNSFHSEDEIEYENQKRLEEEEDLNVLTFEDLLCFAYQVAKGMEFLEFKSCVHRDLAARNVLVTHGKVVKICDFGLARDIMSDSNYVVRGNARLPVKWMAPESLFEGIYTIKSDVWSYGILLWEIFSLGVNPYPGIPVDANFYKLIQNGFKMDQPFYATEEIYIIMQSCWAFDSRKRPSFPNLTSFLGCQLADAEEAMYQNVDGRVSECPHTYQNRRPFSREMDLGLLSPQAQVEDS
Procedure: as §1, §2

Aurora-A(h) = molecular target: T5, Aurora-A(h) (Homo sapiens, UniProt O14965); test: Aurora-A kinase inhibition assay (KinaseProfiler / Kinase Hotspot); settings: compound at 1 μM
T5 construct: purchased Millipore (KinaseProfiler service); also Reaction Biology Corp. (Kinase Hotspot)
T5 sequence (O14965 1-403): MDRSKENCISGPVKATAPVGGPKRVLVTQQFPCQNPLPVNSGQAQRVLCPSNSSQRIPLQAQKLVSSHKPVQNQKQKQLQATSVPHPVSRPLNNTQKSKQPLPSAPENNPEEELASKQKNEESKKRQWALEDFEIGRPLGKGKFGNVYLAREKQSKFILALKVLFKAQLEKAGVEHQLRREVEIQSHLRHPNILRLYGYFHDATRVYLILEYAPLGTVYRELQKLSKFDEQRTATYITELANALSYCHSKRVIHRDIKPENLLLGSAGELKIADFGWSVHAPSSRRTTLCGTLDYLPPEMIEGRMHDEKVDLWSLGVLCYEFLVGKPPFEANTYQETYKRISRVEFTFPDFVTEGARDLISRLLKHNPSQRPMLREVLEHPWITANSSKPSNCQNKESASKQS
Procedure: as §1, §2

T2 sequence (P04629 33-796): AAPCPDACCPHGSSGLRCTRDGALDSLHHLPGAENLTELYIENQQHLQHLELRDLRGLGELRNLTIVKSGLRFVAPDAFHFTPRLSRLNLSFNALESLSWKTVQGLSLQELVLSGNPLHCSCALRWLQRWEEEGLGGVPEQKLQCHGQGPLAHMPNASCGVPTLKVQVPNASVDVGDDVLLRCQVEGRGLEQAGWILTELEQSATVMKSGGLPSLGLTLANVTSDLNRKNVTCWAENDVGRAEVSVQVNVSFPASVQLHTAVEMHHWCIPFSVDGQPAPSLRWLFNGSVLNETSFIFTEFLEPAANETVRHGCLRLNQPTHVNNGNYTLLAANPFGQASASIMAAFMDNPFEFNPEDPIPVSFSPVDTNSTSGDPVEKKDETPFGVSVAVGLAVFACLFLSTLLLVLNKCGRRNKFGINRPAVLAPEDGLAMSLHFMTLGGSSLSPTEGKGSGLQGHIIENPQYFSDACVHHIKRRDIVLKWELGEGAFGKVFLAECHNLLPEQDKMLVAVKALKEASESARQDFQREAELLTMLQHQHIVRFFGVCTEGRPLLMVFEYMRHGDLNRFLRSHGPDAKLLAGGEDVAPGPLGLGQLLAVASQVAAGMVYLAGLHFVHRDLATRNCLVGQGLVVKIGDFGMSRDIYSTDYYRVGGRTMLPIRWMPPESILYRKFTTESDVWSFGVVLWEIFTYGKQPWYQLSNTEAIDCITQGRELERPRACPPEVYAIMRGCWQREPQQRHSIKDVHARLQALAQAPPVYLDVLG
T1 sequence (P07949 29-1114): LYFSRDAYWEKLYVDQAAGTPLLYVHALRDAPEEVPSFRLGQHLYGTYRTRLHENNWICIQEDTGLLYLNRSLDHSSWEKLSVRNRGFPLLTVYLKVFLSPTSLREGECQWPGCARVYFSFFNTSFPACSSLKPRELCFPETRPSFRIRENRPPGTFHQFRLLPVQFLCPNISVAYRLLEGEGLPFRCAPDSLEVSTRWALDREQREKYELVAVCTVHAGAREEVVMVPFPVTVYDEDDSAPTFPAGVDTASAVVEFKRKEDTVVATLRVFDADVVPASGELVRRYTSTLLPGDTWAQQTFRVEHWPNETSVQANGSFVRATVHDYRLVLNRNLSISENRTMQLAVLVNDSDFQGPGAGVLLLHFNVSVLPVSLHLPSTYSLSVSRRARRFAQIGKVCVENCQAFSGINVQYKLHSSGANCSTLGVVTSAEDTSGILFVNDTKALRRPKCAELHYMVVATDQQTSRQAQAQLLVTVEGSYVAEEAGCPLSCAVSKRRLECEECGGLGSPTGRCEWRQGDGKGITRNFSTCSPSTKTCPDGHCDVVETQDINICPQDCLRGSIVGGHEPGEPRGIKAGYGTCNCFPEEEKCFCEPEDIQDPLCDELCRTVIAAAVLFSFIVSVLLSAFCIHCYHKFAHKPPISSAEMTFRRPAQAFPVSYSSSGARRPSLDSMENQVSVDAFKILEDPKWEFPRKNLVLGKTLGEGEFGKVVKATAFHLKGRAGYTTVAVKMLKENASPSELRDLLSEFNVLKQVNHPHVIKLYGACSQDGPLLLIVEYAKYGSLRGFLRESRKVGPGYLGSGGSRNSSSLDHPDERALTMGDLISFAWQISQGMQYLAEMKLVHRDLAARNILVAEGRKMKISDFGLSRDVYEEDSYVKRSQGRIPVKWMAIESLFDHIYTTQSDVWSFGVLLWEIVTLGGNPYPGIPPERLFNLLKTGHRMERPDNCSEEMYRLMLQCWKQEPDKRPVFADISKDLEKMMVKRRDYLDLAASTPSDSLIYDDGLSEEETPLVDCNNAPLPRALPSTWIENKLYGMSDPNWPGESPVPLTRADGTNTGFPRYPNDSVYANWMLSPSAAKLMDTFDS
T3 sequence (P12931 whole entry): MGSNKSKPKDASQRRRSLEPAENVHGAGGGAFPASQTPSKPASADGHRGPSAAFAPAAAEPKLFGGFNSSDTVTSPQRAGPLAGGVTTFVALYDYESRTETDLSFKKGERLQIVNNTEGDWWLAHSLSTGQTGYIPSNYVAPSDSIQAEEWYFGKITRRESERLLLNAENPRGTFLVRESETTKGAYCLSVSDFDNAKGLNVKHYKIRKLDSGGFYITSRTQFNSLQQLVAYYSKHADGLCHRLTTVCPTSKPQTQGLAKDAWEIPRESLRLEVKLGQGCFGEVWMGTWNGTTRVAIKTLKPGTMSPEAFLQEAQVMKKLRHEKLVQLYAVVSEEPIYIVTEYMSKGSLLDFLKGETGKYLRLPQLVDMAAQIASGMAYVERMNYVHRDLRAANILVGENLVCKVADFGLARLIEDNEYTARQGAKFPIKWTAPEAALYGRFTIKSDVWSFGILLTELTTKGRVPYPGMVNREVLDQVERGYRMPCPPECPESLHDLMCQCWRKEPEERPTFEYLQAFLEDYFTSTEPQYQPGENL

Row | Compound | inhibition at 1 µM (Ret kinase) [%] | inhibition at 1 µM (TrkA Kinase) [%] | inhibition at 1 µM (c-Src kinase) [%] | inhibition at 1 µM (Flt3 kinase) [%] | inhibition at 1 µM (Aurora-A(h)) [%] | % Inhibition @1 μM Ret (Ret kinase) [%] | % Inhibition @1 μM TrkA (TrkA Kinase) [%] | % Inhibition @1 μM Flt3 (Flt3 kinase) [%]
1 | CC(C)c1cnc(Nc2nc(NC(C)c3ccc(F)cc3)nc(N3CCN(C)CC3)n2)s1 (stereo not shown) [Example 2] | < 50 | > 90 | > 90 | > 90 | < 50 |  |  | 
2 | CC(C)c1cnc(Nc2nc(N[C@@H](C)c3ccc(F)cc3)nc(N3CCN(C)CC3)n2)s1 [Example 3] | 50 to 90 | > 90 | > 90 | > 90 | 50 to 90 |  |  | 
3 | CC(C)c1cnc(Nc2nc(N[C@H](C)c3ccc(F)cc3)nc(N3CCN(C)CC3)n2)s1 [Example 4] | < 50 | 50 to 90 | 50 to 90 | > 90 | < 50 |  |  | 
4 | Cc1cnc(Nc2nc(NCc3ccc4c(c3)OCO4)nc(N3CCN(C)CC3)n2)s1 [Example 6] | 50 to 90 | > 90 | 50 to 90 | > 90 | 50 to 90 |  |  | 
5 | Cc1cnc(Nc2nc(NCc3ccccc3)nc(N3CCN(C)CC3)n2)s1 [Example 7] | > 90 | > 90 | 50 to 90 | > 90 | 50 to 90 |  |  | 
6 | Cc1cnc(Nc2nc(NCc3ccc(F)cc3)nc(N3CCN(C)CC3)n2)s1 [Example 8] | 50 to 90 | > 90 | 50 to 90 | > 90 | 50 to 90 |  |  | 
7 | CN1CCN(c2nc(NCc3ccc(F)cc3)nc(Nc3cc(-c4ccco4)[nH]n3)n2)CC1 [Example 9] | < 50 | > 90 | 50 to 90 | > 90 | < 50 |  |  | 
8 | CN1CCN(c2nc(Nc3cc(-c4ccco4)[nH]n3)nc(N(C)Cc3ccc(F)cc3)n2)CC1 [Example 10] | < 50 | > 90 | 50 to 90 | > 90 | 50 to 90 |  |  | 
9 | CN1CCN(c2nc(Nc3cc(-c4ccco4)[nH]n3)nc(SCc3ccc(F)cc3)n2)CC1 [Example 11] | < 50 | > 90 | 50 to 90 | > 90 | 50 to 90 |  |  | 
10 | CN1CCN(c2nc(NCc3ccccc3)nc(Nc3cc(-c4ccco4)[nH]n3)n2)CC1 [Example 12] | < 50 | > 90 | 50 to 90 | > 90 | < 50 |  |  | 
11 | CN1CCN(c2nc(Nc3cc(-c4ccco4)[nH]n3)nc(OCc3ccccc3)n2)CC1 [Example 14] | < 50 | > 90 | < 50 | > 90 | < 50 |  |  | 
12 | CN1CCN(c2nc(Nc3cc(-c4ccco4)[nH]n3)nc(SCc3ccccc3)n2)CC1 [Example 15] | < 50 | > 90 | < 50 | > 90 | < 50 |  |  | 
13 | C[C@@H](Nc1nc(Nc2cc(-c3ccco3)[nH]n2)nc(N2CCN(C)CC2)n1)c1ccc(F)cc1 [Example 18] | > 90 | > 90 | > 90 | > 90 | < 50 |  |  | 
14 | CN1CCN(c2nc(NCc3ccccc3)nc(Nc3ncc(-c4ccccc4)s3)n2)CC1 [Example 19] | < 50 | < 50 | < 50 | < 50 | < 50 |  |  | 
15 | CC(Nc1nc(Nc2cc(C3CC3)[nH]n2)nc(N2CCN(C)CC2)n1)c1ccc(F)cc1 (stereo not shown) [Example 20] | < 50 | 50 to 90 | 50 to 90 | 50 to 90 | 50 to 90 |  |  | 
16 | C[C@H](Nc1nc(Nc2cc(-c3ccco3)[nH]n2)nc(N2CCN(C)CC2)n1)c1ccc(F)cc1 [Example 21] | > 90 | > 90 | < 50 | > 90 | < 50 |  |  | 
17 | C[C@@H](Nc1nc(Nc2cc(-c3ccco3)[nH]n2)nc(N2CCN(C)CC2)n1)c1ccc(F)cc1 [Example 22] |  |  |  |  |  | >90 | >90 | >90
18 | CN1CCN(c2nc(Nc3cc(-c4ccco4)[nH]n3)nc(NC(C)(C)c3ccccc3)n2)CC1 [Example 23] | > 90 | > 90 | < 50 | > 90 | < 50 |  |  | 
